Laboratory results taken from ChEMBL document CHEMBL5291721, “A preclinical secondary pharmacology resource illuminates target-adverse drug reaction associations of marketed drugs” (Nat Commun, 2023).

What was measured:
[1] = target: Cannabinoid receptor 1 (Homo sapiens, UniProt P21554); format: functional, cell-based
[2] = target: 5-hydroxytryptamine receptor 2B (Homo sapiens, UniProt P41595); format: functional, cell-based
[3] = target: D(3) dopamine receptor (Homo sapiens, UniProt P35462)
[4] = target: T1, 5-hydroxytryptamine receptor 1A (Homo sapiens, UniProt P08908); format: functional, cell-based
T1 sequence (P08908 whole entry): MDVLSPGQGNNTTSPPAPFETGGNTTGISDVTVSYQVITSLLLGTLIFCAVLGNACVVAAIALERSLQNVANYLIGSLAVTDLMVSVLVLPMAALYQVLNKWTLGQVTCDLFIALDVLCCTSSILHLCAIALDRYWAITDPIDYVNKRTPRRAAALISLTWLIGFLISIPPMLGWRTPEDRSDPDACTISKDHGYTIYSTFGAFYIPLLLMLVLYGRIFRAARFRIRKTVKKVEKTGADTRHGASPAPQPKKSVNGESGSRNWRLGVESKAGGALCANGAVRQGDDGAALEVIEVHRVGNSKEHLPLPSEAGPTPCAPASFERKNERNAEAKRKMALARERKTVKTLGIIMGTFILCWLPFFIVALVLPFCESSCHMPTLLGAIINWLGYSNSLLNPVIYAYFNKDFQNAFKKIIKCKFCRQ

[5] = target: Neuronal acetylcholine receptor subunit alpha-4 (Homo sapiens, UniProt P43681)
Chain of Neuronal acetylcholine receptor subunit alpha-4 (P43681 whole entry): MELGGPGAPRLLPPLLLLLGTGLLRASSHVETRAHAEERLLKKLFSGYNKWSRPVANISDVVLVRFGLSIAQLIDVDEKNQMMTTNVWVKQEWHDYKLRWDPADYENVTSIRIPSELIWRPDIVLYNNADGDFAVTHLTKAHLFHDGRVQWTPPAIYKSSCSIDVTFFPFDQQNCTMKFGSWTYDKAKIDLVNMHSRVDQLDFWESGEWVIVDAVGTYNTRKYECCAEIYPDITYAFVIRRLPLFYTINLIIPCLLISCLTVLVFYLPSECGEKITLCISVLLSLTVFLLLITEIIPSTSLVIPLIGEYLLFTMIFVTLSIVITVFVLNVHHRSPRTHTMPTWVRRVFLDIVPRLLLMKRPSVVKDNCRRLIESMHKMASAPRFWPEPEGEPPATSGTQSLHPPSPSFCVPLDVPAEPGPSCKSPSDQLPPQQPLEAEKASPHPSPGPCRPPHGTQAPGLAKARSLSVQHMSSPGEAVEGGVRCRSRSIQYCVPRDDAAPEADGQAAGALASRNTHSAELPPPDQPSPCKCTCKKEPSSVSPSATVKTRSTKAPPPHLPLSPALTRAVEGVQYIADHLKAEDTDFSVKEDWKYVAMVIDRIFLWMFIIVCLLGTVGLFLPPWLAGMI

[6] = target: Voltage-gated inwardly rectifying potassium channel KCNH2 (Homo sapiens, UniProt Q12809); format: functional; details: read-out: AC50
Chain of Voltage-gated inwardly rectifying potassium channel KCNH2 (Q12809 whole entry): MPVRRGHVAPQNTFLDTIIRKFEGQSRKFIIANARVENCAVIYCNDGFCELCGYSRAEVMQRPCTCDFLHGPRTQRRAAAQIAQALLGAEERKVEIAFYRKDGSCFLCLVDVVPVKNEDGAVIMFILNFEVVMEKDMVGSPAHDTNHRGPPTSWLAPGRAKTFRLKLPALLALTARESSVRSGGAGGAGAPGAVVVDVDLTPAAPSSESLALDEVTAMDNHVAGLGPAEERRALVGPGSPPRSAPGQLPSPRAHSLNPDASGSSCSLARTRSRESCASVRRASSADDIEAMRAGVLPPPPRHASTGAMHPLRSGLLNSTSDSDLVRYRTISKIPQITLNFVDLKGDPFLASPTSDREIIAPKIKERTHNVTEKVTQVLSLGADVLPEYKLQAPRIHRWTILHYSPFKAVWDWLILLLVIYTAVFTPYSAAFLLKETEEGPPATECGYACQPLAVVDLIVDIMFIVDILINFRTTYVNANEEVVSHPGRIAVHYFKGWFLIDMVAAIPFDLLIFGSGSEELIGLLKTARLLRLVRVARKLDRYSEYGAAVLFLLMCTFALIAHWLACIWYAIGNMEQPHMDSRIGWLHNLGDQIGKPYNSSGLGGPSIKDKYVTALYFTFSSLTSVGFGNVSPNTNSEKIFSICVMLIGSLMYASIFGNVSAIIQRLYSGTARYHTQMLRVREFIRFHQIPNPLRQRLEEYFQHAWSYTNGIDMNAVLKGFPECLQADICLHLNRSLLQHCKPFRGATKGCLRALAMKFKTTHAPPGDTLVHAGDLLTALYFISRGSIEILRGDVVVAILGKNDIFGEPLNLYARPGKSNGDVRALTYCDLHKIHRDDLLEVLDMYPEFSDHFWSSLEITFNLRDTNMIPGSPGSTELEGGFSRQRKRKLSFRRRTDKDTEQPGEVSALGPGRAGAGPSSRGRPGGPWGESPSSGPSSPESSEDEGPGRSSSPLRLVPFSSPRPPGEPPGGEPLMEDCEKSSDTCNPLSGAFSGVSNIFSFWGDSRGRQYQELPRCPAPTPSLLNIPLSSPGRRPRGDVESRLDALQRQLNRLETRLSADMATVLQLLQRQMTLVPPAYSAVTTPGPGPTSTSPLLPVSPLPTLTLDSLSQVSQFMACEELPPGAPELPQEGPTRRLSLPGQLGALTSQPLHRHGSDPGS

[7] = target: T2, Thromboxane A2 receptor (Homo sapiens, UniProt P21731); format: functional, cell-based
T2 sequence (P21731 whole entry): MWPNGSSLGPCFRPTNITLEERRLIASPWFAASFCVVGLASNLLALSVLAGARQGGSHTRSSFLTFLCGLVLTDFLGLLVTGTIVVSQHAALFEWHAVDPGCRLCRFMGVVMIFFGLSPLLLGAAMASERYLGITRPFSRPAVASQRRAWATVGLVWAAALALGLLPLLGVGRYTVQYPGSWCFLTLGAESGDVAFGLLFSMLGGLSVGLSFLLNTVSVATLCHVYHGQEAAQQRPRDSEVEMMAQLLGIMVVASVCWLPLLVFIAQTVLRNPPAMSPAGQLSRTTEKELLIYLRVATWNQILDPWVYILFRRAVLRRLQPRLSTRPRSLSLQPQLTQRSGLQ

[8] = target: T3, Progesterone receptor (Homo sapiens, UniProt P06401)
T3 sequence (P06401 whole entry): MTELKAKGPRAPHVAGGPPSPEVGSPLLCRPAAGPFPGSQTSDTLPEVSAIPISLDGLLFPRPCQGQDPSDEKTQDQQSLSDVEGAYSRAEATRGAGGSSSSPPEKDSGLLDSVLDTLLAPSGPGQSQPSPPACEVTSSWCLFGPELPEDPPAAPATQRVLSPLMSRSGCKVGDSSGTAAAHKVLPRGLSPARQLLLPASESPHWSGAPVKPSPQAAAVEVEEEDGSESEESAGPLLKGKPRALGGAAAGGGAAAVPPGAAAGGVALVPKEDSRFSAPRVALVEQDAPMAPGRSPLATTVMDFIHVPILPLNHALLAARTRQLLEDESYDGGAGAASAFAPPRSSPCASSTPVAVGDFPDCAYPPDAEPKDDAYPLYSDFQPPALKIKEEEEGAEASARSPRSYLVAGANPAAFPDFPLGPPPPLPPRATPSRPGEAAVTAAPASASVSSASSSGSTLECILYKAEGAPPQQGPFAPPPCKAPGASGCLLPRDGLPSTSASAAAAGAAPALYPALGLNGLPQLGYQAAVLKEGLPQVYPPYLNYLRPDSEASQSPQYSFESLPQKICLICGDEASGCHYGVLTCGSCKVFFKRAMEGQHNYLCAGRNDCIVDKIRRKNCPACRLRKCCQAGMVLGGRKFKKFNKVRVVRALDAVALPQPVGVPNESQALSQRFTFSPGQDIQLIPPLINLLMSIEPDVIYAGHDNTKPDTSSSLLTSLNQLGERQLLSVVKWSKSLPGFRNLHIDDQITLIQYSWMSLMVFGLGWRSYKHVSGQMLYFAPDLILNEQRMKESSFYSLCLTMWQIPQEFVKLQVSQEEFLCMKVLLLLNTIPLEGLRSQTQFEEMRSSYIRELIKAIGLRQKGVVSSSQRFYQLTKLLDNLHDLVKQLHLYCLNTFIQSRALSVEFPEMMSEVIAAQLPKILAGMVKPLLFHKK

[9] = target: Prostaglandin G/H synthase 1 (Homo sapiens, UniProt P23219); format: functional
Chain of Prostaglandin G/H synthase 1 (P23219 whole entry): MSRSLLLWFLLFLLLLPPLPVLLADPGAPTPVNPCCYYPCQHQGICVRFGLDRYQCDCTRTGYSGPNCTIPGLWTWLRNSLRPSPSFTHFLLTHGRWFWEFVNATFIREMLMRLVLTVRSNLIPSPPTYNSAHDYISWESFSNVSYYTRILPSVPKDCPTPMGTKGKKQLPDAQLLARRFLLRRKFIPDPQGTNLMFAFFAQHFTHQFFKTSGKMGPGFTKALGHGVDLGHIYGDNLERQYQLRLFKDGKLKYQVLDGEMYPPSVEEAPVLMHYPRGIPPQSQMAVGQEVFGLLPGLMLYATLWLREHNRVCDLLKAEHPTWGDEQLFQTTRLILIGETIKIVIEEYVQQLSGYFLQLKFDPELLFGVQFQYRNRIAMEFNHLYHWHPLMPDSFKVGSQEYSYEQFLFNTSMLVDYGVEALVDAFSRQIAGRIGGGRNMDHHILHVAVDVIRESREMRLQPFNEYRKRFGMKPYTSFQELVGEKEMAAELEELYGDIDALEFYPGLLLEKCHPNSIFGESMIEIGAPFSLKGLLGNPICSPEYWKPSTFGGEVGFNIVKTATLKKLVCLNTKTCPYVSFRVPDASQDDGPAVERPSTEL

[10] = target: Sodium-dependent noradrenaline transporter (Homo sapiens, UniProt P23975)
Chain of Sodium-dependent noradrenaline transporter (P23975 whole entry): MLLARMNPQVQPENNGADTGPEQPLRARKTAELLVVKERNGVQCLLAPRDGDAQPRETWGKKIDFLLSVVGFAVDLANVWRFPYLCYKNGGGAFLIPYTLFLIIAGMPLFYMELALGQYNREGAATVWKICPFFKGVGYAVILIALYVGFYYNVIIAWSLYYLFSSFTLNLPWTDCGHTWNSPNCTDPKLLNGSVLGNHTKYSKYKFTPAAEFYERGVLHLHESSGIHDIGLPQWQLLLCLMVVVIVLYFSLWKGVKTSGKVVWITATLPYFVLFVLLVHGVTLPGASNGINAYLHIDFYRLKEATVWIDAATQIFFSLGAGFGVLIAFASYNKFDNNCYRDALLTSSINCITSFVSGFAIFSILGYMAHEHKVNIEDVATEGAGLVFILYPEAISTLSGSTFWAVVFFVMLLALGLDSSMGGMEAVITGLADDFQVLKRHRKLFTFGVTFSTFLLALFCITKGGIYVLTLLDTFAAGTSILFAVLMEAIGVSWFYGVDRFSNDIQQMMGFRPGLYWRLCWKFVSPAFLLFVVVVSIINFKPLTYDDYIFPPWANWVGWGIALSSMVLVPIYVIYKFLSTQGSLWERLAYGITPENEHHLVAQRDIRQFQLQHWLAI

[11] = target: T4, Alpha-1A adrenergic receptor (Homo sapiens, UniProt P35348); format: functional, cell-based
T4 sequence (P35348 whole entry): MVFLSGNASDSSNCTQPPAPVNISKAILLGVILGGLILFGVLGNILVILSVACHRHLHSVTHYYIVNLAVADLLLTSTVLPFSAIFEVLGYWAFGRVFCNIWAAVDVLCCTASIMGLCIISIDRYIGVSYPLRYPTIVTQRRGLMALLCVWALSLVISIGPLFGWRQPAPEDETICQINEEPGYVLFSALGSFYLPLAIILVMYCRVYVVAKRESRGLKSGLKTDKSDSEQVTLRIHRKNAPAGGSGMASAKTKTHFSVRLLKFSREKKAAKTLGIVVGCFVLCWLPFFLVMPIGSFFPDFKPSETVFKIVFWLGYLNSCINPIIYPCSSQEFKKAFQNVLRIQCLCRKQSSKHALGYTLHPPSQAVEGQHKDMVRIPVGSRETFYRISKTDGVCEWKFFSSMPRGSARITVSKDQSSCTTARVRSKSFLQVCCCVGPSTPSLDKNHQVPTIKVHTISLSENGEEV

[12] = target: T5, Adenosine receptor A3 (Homo sapiens, UniProt P0DMS8)
T5 sequence (P0DMS8 whole entry): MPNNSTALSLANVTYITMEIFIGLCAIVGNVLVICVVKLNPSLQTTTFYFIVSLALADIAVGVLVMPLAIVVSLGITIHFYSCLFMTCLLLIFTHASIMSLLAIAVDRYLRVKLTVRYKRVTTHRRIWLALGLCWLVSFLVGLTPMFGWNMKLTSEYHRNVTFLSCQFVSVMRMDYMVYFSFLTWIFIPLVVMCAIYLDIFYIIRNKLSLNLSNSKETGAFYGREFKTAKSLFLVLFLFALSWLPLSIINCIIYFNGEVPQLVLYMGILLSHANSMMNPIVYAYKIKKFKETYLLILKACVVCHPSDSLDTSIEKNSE

Measured: AC50
Further: assay procedure not described here.

Chain of D(3) dopamine receptor (P35462 whole entry): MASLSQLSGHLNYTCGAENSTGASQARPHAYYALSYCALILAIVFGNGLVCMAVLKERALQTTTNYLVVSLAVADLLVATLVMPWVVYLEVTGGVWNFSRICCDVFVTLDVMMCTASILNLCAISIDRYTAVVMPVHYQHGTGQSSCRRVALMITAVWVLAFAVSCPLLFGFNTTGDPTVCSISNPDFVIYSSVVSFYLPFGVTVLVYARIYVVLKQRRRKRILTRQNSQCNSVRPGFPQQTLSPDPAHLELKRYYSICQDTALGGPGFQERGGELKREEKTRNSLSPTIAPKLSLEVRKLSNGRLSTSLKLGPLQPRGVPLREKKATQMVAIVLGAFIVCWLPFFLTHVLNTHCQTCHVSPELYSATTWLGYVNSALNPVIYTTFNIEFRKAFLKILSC
Chain of Cannabinoid receptor 1 (P21554 whole entry): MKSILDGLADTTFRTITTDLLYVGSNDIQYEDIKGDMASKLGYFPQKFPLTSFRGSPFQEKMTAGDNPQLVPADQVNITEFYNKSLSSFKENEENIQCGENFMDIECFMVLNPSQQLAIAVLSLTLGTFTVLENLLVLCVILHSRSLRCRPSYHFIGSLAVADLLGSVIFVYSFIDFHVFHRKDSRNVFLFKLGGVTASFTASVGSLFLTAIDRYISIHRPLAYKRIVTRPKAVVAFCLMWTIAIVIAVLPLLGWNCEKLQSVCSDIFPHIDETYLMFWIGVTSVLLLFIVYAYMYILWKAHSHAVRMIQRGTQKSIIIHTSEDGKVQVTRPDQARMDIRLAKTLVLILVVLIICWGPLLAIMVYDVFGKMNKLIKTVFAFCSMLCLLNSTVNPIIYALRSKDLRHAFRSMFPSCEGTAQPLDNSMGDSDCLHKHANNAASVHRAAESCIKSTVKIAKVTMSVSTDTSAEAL
Chain of 5-hydroxytryptamine receptor 2B (P41595 whole entry): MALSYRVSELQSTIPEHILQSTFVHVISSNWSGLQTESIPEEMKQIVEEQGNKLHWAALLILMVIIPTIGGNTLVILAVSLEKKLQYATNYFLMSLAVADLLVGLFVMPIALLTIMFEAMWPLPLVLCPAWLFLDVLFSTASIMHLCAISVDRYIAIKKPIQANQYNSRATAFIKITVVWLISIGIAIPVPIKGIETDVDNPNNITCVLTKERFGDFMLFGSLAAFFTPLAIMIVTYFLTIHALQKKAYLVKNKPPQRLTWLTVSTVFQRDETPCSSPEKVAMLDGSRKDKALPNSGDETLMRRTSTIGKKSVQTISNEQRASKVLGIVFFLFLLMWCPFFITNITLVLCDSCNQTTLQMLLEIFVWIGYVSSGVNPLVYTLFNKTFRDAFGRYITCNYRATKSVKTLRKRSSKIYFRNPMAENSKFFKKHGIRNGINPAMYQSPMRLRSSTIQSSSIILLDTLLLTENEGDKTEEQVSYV

CCN(CC)C(=O)C1(c2ccccc2)CC1CN (configuration not stated)
> 30 µM: [1] | [2] | [3] | [4] | [5]

CN(C)C(=O)Oc1cccc([N+](C)(C)C)c1 [NEOSTIGMINE]
> 30 µM: [6] | [7] | [8] | [9] | [10] | [11] | [12]
